Reference: patent US20090270398A1, “Compounds, Compositions and Methods Comprising Pyridazine Derivatives” (Institute for OneWorld Health, priority 2008, published 2009)

These molecules were tested against T1, CFTR (Homo sapiens, UniProt P13569) (assay: T84 assay (FLIPR membrane potential, forskolin/IBMX-stimulated CFTR channel activity)). Conditions: average of at least 2 runs unless annotated n = 1.
T1 construct: results in the phosphorylation and opening of CFTR anion channels
Type: cell-based
Method: (§1) For example, Human colonic T84 cells can be acquired from the European Collection of Cell Cultures (ECACC) and grown in standard culture conditions as described by the supplier. On the day before assay 25,000 T84 cells per well are plated into standard black walled, clear bottom 384-well assay plates in standard growth medium consisting of DMEM:F12 with 10% FBS and incubated overnight. On the day of the assay the plates are washed using a standard assay buffer (HBSS with 10 mM Hepes) and incubated for 15 minutes in serum free cell culture medium before the addition of a commercially available membrane potential sensitive fluorescent dye (FLIPR Red membrane potential dye, Molecular Devices Corporation). T84 cells are incubated with the FLIPR Red membrane potential dye for 45 minutes in the presence and absence of test compound before being transferred to a commercially available fluorescence imaging plate reader (FLIPR384, Molecular Devices Corporation). Fluorescence levels are monitored continuously every second for 150 seconds; after an initial 10 second baseline, CFTR channel activity is stimulated through the addition of 10 μM forskolin in the presence of 100 μM of the phosphodiesterase inhibitor iso-butyl-methylxanthine (IBMX). Addition of the forskolin leads to the activation of intracellular adenylyl cylase 1, elevating cAMP levels and results in the phosphorylation and opening of CFTR anion channels. CFTR channel opening causes chloride ion efflux and subsequent depolarization of the cells, which is measured by an increase in fluorescence. CFTR inhibitor compounds prevent cell depolarization and the associated increase in fluorescence.
as §1, with “Human colonic” for “For example, Human colonic”, “T84 cells are acquired from” for “T84 cells can be acquired from”, “(ECACC) and are grown in” for “(ECACC) and grown in”
Unless otherwise indicated, the IC50 values are reported as an average of at least 2 runs. Where only 1 run is used, this is indicated by the annotation “n=1.”

T1 sequence (P13569 whole entry): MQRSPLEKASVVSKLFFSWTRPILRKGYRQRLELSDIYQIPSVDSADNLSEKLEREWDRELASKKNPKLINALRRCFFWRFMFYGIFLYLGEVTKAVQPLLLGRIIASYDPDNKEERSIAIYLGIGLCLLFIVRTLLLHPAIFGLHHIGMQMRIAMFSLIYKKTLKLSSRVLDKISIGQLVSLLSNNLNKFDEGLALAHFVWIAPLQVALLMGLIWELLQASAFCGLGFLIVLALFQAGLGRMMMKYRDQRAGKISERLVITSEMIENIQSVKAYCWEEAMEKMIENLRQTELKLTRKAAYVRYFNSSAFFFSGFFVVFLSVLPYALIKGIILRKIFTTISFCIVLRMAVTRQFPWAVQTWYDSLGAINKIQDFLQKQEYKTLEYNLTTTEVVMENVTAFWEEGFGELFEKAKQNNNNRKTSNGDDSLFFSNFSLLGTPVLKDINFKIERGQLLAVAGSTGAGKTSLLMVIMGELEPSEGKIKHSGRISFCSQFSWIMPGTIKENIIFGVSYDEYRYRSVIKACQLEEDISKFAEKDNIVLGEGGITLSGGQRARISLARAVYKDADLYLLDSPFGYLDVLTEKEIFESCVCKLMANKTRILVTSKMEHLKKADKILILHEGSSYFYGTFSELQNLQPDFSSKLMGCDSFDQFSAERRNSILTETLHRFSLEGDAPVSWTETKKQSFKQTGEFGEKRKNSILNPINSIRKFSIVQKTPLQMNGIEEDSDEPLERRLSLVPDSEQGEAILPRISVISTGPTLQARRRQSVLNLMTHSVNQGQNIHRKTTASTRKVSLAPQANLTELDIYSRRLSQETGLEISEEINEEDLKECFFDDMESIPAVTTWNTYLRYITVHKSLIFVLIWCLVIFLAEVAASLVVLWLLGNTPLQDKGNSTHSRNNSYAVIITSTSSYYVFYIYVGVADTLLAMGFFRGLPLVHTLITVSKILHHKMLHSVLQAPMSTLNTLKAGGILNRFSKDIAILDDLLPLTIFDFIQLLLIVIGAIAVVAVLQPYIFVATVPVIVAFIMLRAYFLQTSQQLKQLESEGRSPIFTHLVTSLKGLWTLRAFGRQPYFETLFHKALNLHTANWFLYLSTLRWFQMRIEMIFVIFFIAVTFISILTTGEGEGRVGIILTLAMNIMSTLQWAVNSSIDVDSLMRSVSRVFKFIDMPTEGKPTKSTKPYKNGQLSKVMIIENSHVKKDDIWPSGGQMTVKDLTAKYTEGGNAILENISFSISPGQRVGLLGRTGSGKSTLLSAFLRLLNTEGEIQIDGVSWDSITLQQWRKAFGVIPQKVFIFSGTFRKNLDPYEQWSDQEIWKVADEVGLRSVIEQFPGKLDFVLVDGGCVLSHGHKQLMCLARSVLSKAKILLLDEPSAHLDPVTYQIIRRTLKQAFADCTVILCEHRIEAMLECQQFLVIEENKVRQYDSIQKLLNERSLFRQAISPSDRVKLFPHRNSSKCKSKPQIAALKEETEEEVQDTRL

Row | Structure (SMILES) | IC50 [µM]
1 | Oc1c(Br)cc(-c2ccc(OCc3ccc(F)cc3Cl)nn2)cc1Br [Compound 89, 2,6-dibromo-4-(6-(2-chloro-4-fluorobenzyloxy)pyridazin-3-yl)phenol] | 6.01
2 | CC(Oc1ccc(-c2cc(Br)c(O)c(Br)c2)nn1)c1cccc(Cl)c1 (stereo not drawn) [Compound 90, 2,6-dibromo-4-(6-(1-(3-chlorophenyl)ethoxy)pyridazin-3-yl)phenol] | 17.6
3 | Oc1c(Br)cc(-c2ccc(OCc3cccc(Br)c3)nn2)cc1Br [Compound 91, 2,6-dibromo-4-(6-(3-bromobenzyloxy)pyridazin-3-yl)phenol] | 26.1
4 | Oc1c(Br)cc(-c2ccc(OCCc3ccc(Cl)cc3)nn2)cc1Br [Compound 92, 2,6-dibromo-4-(6-(4-chlorophenethoxy)pyridazin-3-yl)phenol] | 3.38
5 | Oc1c(Br)cc(-c2ccc(OCCc3ccc(Br)cc3)nn2)cc1Br [Compound 93, 2,6-dibromo-4-(6-(4-bromophenethoxy)pyridazin-3-yl)phenol] | 4.2
6 | Oc1c(Br)cc(-c2ccc(OCCc3cccc(Cl)c3Cl)nn2)cc1Br [Compound 94, 2,6-dibromo-4-(6-(2,3-dichlorophenethoxy)pyridazin-3-yl)phenol] | 8.03
7 | Oc1c(Br)cc(-c2ccc(OCc3cccc4ccccc34)nn2)cc1Br [Compound 95, 2,6-dibromo-4-(6-(naphthalen-1-ylmethoxy)pyridazin-3-yl)phenol] | 7.9
8 | Oc1c(Cl)cc(-c2ccc(OCc3ccc(F)cc3Cl)nn2)cc1Cl [Compound 96, 2,6-dichloro-4-(6-(2-chloro-4-fluorobenzyloxy)pyridazin-3-yl)phenol] | 3.74
9 | Oc1c(Br)cc(-c2ccc(OCc3cccc(Cl)c3Cl)nn2)cc1Br [Compound 99, 2,6-dibromo-4-(6-(2,3-dichlorobenzyloxy)pyridazin-3-yl)phenol] | 12.4
10 | Oc1c(Br)cc(-c2ccc(OCCc3cccc4ccccc34)nn2)cc1Br [Compound 100, 2,6-dibromo-4-(6-(2-(naphthalen-1-yl)ethoxy)pyridazin-3-yl)phenol] | 25.3
11 | CC(C)(C)OC(=O)N1CCC(COc2ccc(-c3cc(Cl)c(O)c(Cl)c3)nn2)(c2ccccc2)CC1 [Compound 101, tert-butyl 4-((6-(3,5-dichloro-4-hydroxyphenyl)pyridazin-3-yloxy)methyl)-4-phenylpiperidine-1-carboxylate] | 12.7
12 | Oc1c(Cl)cc(-c2ccc(OCCc3cccs3)nn2)cc1Cl [Compound 102, 2,6-dichloro-4-(6-(2-(thiophen-2-yl)ethoxy)pyridazin-3-yl)phenol] | 6.84
13 | Oc1c(Cl)cc(-c2ccc(OCCc3ccccc3)nn2)cc1Cl [Compound 103, 2,6-dichloro-4-(6-phenethoxypyridazin-3-yl)phenol] | 5.75
14 | Oc1c(Cl)cc(-c2ccc(OCCc3cccc(Cl)c3)nn2)cc1Cl [Compound 104, 2,6-dichloro-4-(6-(3-chlorophenethoxy)pyridazin-3-yl)phenol] | 10.4
15 | Oc1c(Cl)cc(-c2ccc(OCc3cnc(Br)s3)nn2)cc1Cl [Compound 105, 4-(6-((2-bromothiazol-5-yl)methoxy)pyridazin-3-yl)-2,6-dichlorophenol] | 20.8
16 | Oc1c(Cl)cc(-c2ccc(OCc3ccsc3)nn2)cc1Cl [Compound 106, 2,6-dichloro-4-(6-(thiophen-3-ylmethoxy)pyridazin-3-yl)phenol] | 19.5
17 | CN(C)CCCOc1ccc(CN2CCC(COc3ccc(-c4cc(Cl)c(O)c(Cl)c4)nn3)(c3ccccc3)CC2)cc1 [Compound 107, 2,6-dichloro-4-(6-((1-(4-(3-(dimethylamino)propoxy)benzyl)-4-phenylpiperidin-4-yl)methoxy)pyridazin-3-yl)phenol] | 2.85
18 | Oc1c(Cl)cc(-c2ccc(OCC3(c4ccccc4)CCN(Cc4ccc(Cl)nc4)CC3)nn2)cc1Cl [Compound 108, 2,6-dichloro-4-(6-((1-((6-chloropyridin-3-yl)methyl)-4-phenylpiperidin-4-yl)methoxy)pyridazin-3-yl)phenol] | 0.63
19 | OCCN(Cc1cccnc1)c1ccc(-c2cc(Cl)c(O)c(Cl)c2)nn1 [Compound 109, 2,6-dichloro-4-(6-((2-hydroxyethyl)(pyridin-3-ylmethyl)amino)pyridazin-3-yl)phenol] | 4.72
20 | OCCN(Cc1ccccn1)c1ccc(-c2cc(Cl)c(O)c(Cl)c2)nn1 [Compound 113, 2,6-dichloro-4-(6-((2-hydroxyethyl)(pyridin-2-ylmethyl)amino)pyridazin-3-yl)phenol] | 17.6
21 | OCCN(Cc1ccncc1)c1ccc(-c2cc(Cl)c(O)c(Cl)c2)nn1 [Compound 116, 2,6-dichloro-4-(6-((2-hydroxyethyl)(pyridin-4-ylmethyl)amino)pyridazin-3-yl)phenol] | 16.5
22 | Oc1c(Cl)cc(-c2ccc(OCc3ccccc3)nn2)cc1Cl [Compound 119, 4-(6-(benzyloxy)pyridazin-3-yl)-2,6-dichlorophenol] | 2.76
23 | CN(Cc1ccc(-c2ccncc2)cc1)c1ccc(-c2cc(Cl)c(O)c(Cl)c2)nn1 [Compound 125, 2,6-dichloro-4-(6-(methyl(4-(pyridin-4-yl)benzyl)amino)pyridazin-3-yl)phenol] | 2.05

Continued by falling IC50, values first:

Row | IC50 [µM] | Structure (SMILES)
24 | 1.71 | CN(Cc1cccc(Oc2ccccn2)c1)c1ccc(-c2cc(Cl)c(O)c(Cl)c2)nn1 [Compound 120, 2,6-dichloro-4-(6-(methyl(3-(pyridin-2-yloxy)benzyl)amino)pyridazin-3-yl)phenol]
25 | 1.65 | CN(Cc1cccnc1)c1ccc(-c2cc(Cl)c(O)c(Cl)c2)nn1 [Compound 124, 2,6-dichloro-4-(6-(methyl(pyridin-3-ylmethyl)amino)pyridazin-3-yl)phenol]
26 | 1.53 | OCCN(Cc1ccccc1Cl)c1ccc(-c2cc(Cl)c(O)c(Cl)c2)nn1 [Compound 112, 2,6-dichloro-4-(6-((2-chlorobenzyl)(2-hydroxyethyl)amino)pyridazin-3-yl)phenol]
27 | 1.41 | OCCN(Cc1cccc(Cl)c1Cl)c1ccc(-c2cc(Cl)c(O)c(Cl)c2)nn1 [Compound 123, 2,6-dichloro-4-(6-((2,3-dichlorobenzyl)(2-hydroxyethyl)amino)pyridazin-3-yl)phenol]
28 | 1.36 | Oc1c(Cl)cc(-c2ccc(NCc3cc(F)ccc3F)nn2)cc1Cl [Compound 117, 2,6-dichloro-4-(6-(2,5-difluorobenzylamino)pyridazin-3-yl)phenol]
29 | 0.73 | Oc1c(Cl)cc(-c2ccc(NCc3ccccc3)nn2)cc1Cl [Compound 110, 4-(6-(benzylamino)pyridazin-3-yl)-2,6-dichlorophenol]
30 | 0.37 | OCCN(Cc1ccc(F)cc1)c1ccc(-c2cc(Cl)c(O)c(Cl)c2)nn1 [Compound 111, 2,6-dichloro-4-(6-((4-fluorobenzyl)(2-hydroxyethyl)amino)pyridazin-3-yl)phenol]
31 | 0.23 | CN(Cc1ccc(F)c(F)c1)c1ccc(-c2cc(Cl)c(O)c(Cl)c2)nn1 [Compound 121, 2,6-dichloro-4-(6-((3,4-difluorobenzyl)(methyl)amino)pyridazin-3-yl)phenol]
32 | 0.15 | Oc1c(Cl)cc(-c2ccc(N3CCc4ccccc4C3)nn2)cc1Cl [Compound 122, 2,6-dichloro-4-(6-(3,4-dihydroisoquinolin-2(1H)-yl)pyridazin-3-yl)phenol]
33 | 0.13 | COCCN(Cc1ccccc1)c1ccc(-c2cc(Cl)c(O)c(Cl)c2)nn1 [Compound 114, 4-(6-(benzyl(2-methoxyethyl)amino)pyridazin-3-yl)-2,6-dichlorophenol]
34 | 0.06 | CN(Cc1ccccc1)c1ccc(-c2cc(Cl)c(O)c(Cl)c2)nn1 [Compound 118, 4-(6-(benzyl(methyl)amino)pyridazin-3-yl)-2,6-dichlorophenol]
35 | 0.03 | CCN(Cc1cccc(F)c1)c1ccc(-c2cc(Cl)c(O)c(Cl)c2)nn1 [Compound 127, 2,6-dichloro-4-(6-(ethyl(3-fluorobenzyl)amino)pyridazin-3-yl)phenol]
36 | 0.02 | CCCN(Cc1ccccc1)c1ccc(-c2cc(Cl)c(O)c(Cl)c2)nn1 [Compound 126, 4-(6-(benzyl(propyl)amino)pyridazin-3-yl)-2,6-dichlorophenol]
